Reference: ChEMBL document CHEMBL3272309, “Potential central nervous system antitumor agents. Aziridinylbenzoquinones. 1” (J Med Chem, 1976)
Activity calls are given as the source filed them. No cut-off for these calls is given here.

tested on: L1210; assay: Antitumor activity against mouse L1210 cells allografted in ip dosed mouse; assay type: functional, organism-based

Structure (SMILES) | Activity
CC(=O)NC1=C(Cl)C(=O)C(NC(C)=O)=C(Cl)C1=O | inactive
O=C1C(Cl)=C(N2CC2)C(=O)C(Cl)=C1N1CC1 | inactive
CC(=O)NC1=C(N2CC2(C)C)C(=O)C(NC(C)=O)=C(N2CC2(C)C)C1=O | inactive
NC1=C(Cl)C(=O)C(N)=C(Cl)C1=O | inactive
CCCSC1=C(N2CC2)C(=O)C(SCCC)=C(N2CC2)C1=O | inactive
COC1=C(Br)C(=O)C(OC)=C(Br)C1=O | inactive
O=C1C(Cl)=C(Cl)C(=O)C(Cl)=C1Cl | inactive
CCOC(=N)C1=C(Cl)C(=O)C(C(=N)OCC)=C(Cl)C1=O | inactive

tested on: L1210; assay: Antitumor activity against mouse L1210 cells allografted in ip dosed mouse administered qd on day 1, 5 and 9 relative to control; assay type: functional

Structure (SMILES) | Activity | T/C [%]
O=C1C(Cl)=C(N2CC2)C(=O)C(Cl)=C1N1CC1 | inactive | –
CC1CN1C1=C(Br)C(=O)C(N2CC2C)=C(Br)C1=O (stereo not given) | inactive | –
CC1CN1C1=C(Cl)C(=O)C(N2CC2C)=C(Cl)C1=O (stereo not given) | inactive | –
CCSC1=C(N2CC2)C(=O)C(SCC)=C(N2CC2)C1=O | – | 130
O=C1C(Br)=C(N2CC2)C(=O)C(Br)=C1N1CC1 | inactive | –
CC1(C)CN1C1=C(Br)C(=O)C(N2CC2(C)C)=C(Br)C1=O | inactive | –
CC1(C)CN1C1=C(Cl)C(=O)C(N2CC2(C)C)=C(Cl)C1=O | inactive | –
